The values that follow come from patent US20240166642A1, “INHIBITORS OF MYELOPEROXIDASE” (ASTRAZENECA AB, priority 2022, published 2024).

Broadly, the IC50 is the midpoint of a concentration-inhibition curve.

The target of experiment [1] is MPO (purified from HL60 cells) (Homo sapiens (Human), UniProt P05164). Kind of experiment: MPO activity (IC50), luminol chemiluminescence assay. The class given is biochemical. Particulars: PBS pH7.4, luminol 100 μM, H2O2 50 μM, chemiluminescence recorded after 15 minutes. The procedure:
(§1) The experiments were performed in phosphate-buffered saline (PBS), pH7.4. A 10 mM luminol (A4695, Sigma Aldrich, St Louis, MO, USA) stock was prepared in distilled water and further diluted in PBS to a final concentration of 100 μM. H2O2 was prepared as 1 mM stock in PBS, yielding a final concentration of 50 μM after addition into the assay. The compounds were serially diluted in DMSO in a separate plate as a 100× stock solution, and MPO (purified from HL60 cells) and TPO (produced in insect cells, RSR Ltd, Cardiff, UK), were diluted to yield a final concentration of approximately 14 and 150 ng/mL, generating 5600 and 9300 light counts per seconds (LCPS) upon incubation with luminol.
(§2) The experiment was run by pipetting 2 μL 100× stock solution of the compound and 200 μL diluted enzyme in PBS into wells in a 96-well Optiplate (6005290, Perkin Elmer/Thermo Fischer, Waltham, MS, USA), followed by addition of 10 μL H2O2 containing PBS. Chemiluminescence measurement (Perkin Elmer Wallac Microbeta Trilux 1450-029 (12-detector), Turkuu, Finland) was started directly and recorded after 2, 10 and 15 minutes.

Experiment [2] has as its target TPO (produced in insect cells, RSR Ltd) (Homo sapiens (Human), UniProt P07202). Kind of experiment: TPO activity (IC50), luminol chemiluminescence assay. Particulars: PBS pH7.4, luminol 100 μM, H2O2 50 μM, chemiluminescence recorded after 15 minutes. Type of experiment: biochemical. The method, then:
as §1, §2

TPO (produced in insect cells, RSR Ltd), sequence (P07202 19-933): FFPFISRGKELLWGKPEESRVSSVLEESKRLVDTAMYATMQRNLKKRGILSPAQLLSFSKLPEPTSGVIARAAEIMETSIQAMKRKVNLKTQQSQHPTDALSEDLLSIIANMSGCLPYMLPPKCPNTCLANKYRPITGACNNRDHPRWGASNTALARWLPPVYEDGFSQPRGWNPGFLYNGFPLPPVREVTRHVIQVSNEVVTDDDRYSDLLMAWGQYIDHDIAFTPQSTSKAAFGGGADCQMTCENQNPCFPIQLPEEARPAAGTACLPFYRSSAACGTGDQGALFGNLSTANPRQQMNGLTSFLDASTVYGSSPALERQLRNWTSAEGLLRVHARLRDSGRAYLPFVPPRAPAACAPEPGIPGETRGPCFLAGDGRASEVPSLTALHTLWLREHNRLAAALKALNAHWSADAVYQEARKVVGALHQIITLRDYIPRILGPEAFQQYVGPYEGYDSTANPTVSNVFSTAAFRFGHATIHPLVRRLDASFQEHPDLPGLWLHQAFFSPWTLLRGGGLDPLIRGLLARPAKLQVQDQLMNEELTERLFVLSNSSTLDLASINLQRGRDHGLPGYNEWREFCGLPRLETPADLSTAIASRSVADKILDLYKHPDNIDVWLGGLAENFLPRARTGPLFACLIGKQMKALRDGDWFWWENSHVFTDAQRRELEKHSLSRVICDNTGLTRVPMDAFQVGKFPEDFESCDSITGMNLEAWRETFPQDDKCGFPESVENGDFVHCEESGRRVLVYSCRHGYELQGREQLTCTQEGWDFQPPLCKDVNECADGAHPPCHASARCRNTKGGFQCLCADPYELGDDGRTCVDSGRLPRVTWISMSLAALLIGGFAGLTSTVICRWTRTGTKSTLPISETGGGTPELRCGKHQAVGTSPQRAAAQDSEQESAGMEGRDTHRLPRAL
MPO (purified from HL60 cells), sequence (P05164 49-745): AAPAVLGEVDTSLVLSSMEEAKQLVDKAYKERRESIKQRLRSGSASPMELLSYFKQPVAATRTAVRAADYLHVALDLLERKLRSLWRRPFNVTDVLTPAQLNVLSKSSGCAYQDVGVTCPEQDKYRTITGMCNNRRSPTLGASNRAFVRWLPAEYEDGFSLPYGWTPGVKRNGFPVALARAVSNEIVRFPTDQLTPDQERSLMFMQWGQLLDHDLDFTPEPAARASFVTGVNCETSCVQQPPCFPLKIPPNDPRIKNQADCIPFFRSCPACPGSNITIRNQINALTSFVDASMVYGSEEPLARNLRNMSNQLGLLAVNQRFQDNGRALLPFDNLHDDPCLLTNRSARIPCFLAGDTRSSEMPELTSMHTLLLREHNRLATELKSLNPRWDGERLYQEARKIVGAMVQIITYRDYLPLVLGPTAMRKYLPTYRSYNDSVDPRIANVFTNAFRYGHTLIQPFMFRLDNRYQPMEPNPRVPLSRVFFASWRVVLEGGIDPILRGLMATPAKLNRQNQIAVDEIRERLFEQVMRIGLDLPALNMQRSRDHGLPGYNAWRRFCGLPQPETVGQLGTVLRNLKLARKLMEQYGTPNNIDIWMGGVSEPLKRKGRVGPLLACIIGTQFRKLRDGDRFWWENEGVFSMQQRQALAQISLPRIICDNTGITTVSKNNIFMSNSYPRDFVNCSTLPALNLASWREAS

Consider `O=c1[nH]c(=S)n(Cc2ccccc2[C@H]2C[C@H](C(F)(F)F)CCN2)c2nc[nH]c12` (single isomer, unassigned) [Example 18a], for which the values for the 50% inhibitory concentration (IC50) in experiment [1] and in experiment [2] were 56.3 nM and 730 nM, respectively.
The like results for `O=c1[nH]c(=S)n(Cc2cccc3c2CNC3)c2cc[nH]c12` [Example 26, 1-(Isoindolin-4-ylmethyl)-2-thioxo-1,2,3,5-tetrahydro-4H-pyrrolo[3,2-d]pyrimidin-4-one] were, in that order, 13 nM and 840 nM.
In the same order, the values of `CN1CCNC(c2ccccc2Cn2c(=S)[nH]c(=O)c3[nH]ccc32)C1` (centres unmarked) [Example 9, 1-(2-(4-Methylpiperazin-2-yl)benzyl)-2-thioxo-1,2,3,5-tetrahydro-4H-pyrrolo[3,2-d]pyrimidin-4-one] are 10.1 nM and 1270 nM.
The like results for `O=c1[nH]c(=S)n(Cc2ccccc2[C@@H]2COCCN2)c2cc[nH]c12` [Example 8, (R)-1-(2-(Morpholin-3-yl)benzyl)-2-thioxo-1,2,3,5-tetrahydro-4H-pyrrolo[3,2-d]pyrimidin-4-one] were, in that order, 67 nM and 930 nM.
For `O=c1[nH]c(=S)n(Cc2ccc(Cl)cc2C2COCCN2)c2nc[nH]c12` (centres unmarked) [Example 5, 3-(4-Chloro-2-(morpholin-3-yl)benzyl)-2-thioxo-1,2,3,7-tetrahydro-6H-purin-6-one], the IC50 in experiment [1] worked out at 194 nM; in experiment [2], 1680 nM.
The like results for `O=c1[nH]c(=S)n(Cc2ccccc2[C@@H]2C[C@H](C(F)(F)F)CCN2)c2nc[nH]c12` [Example 13b, 2-Thioxo-3-(2-((2S,4R)-4-(trifluoromethyl)piperidin-2-yl)benzyl)-1,2,3,7-tetrahydro-6H-purin-6-one] were, in that order, 2.3 nM and 430 nM.
In the same order, the values of `O=c1[nH]c(=S)n(Cc2ccccc2[C@H]2CCCCN2)c2cc[nH]c12` (single isomer, unassigned) [Example 1b] are 2.1 nM and 850 nM.
In the same order, the values of `O=c1[nH]c(=S)n(Cc2ccccc2[C@H]2C[C@H](C(F)(F)F)CCN2)c2nc[nH]c12` (single isomer, unassigned) [Example 18b] are 2.7 nM and 410 nM.
In the case of `O=c1[nH]c(=S)n(Cc2cccnc2[C@H]2C[C@@H](C(F)(F)F)CCN2)c2cc[nH]c12` (single isomer, unassigned) [Example 16a], the IC50 in experiment [1] is 31.4 nM; in experiment [2] it was 1610 nM.
The like results for `O=c1[nH]c(=S)n(Cc2ccccc2C2CCCNC2)c2cc[nH]c12` (centres unmarked) [Example 28, 1-(2-(Piperidin-3-yl)benzyl)-2-thioxo-1,2,3,5-tetrahydro-4H-pyrrolo[3,2-d]pyrimidin-4-one] were, in that order, 3 nM and 680 nM.
